# From publication PMC4502317, “Two helices in the third intracellular loop determine anoctamin 1 (TMEM16A) activation by calcium” (Pflugers Archiv, 2014)
# Where no end group is shown, it is not given here. The star is where a group is joined. Biotin = O=C1N[C@H]2[C@H](CS[C@H]2CCCCC(=O)*)N1
# T1: Ca2+ sensor helix peptide of ANO1 (692-NLEPFAGLTPEYMEM-706), biotinylated (mouse)
# T1 construct: Anoctamin 1 (ANO1/TMEM16A), mouse, residues 692-706, Ca2+ sensor helix of the third intracellular loop (ICL3); Held on the streptavidin chip by its N-terminal biotin; also called biotinylated Ca2+ sensor helix peptide; source: synthetic peptide
# T1 peptide: Biotin-NLEPFAGLTPEYMEM
# Legend:
# [1] = Circular dichroism spectroscopy of reference helix peptides; assay type: physicochemical
# Experimental: To confirm whether the reference helix of ANO1 forms an α-helix, circular dichroism spectroscopy was performed with synthetic peptides spanning the reference helix regions of ANO1 (652-LFEIGIPKMKKFIRYLKL-669) and ANO2 (604-IFEIGVPKLKKLFRKLKD-621).
# [2] = system: biotinylated Ca^2+ sensor helix peptide of ANO1 (692-NLEPFAGLTPEYMEM-706); assay: Surface plasmon resonance, binding to immobilized Ca^2+ sensor helix peptide; parameters: species or system mouse
# Experimental: According to the gating hypothesis, physical binding of the two helices and the interference of Ca^2+ in this interaction are key determinants for gating ANO1. To investigate this relationship, physical interaction between the two helices was measured using surface plasmon resonance. A peptide segment (692-NLEPFAGLTPEYMEM-706) spanning the Ca^2+ sensor helix of ANO1 was synthesized, biotinylated at the N-terminus, and immobilized on a streptavidin-coated gold sensor chip. Subsequently, a synthetic peptide spanning the reference helix (651-[…]-671) was passed over the immobilized Ca^2+ sensor helix.
# A Biacore 3000 was used for kinetic surface plasmon resonance measurement as previously described. Briefly, a biotinylated peptide (692-NLEPFAGLTPEYMEM-706) was immobilized on a SA chip or custom streptavidin-coated CM5 sensor chip (GE Healthcare), with one flow cell with biotin alone as a reference cell. For the binding assay, HEPES-buffered saline containing 0.005 % of Tween 20 was used as a running buffer. Various concentrations of the reference helix peptide (aa 651–671) were injected for 120 s and dissociated for 240 s at a flow rate of 20 μL/min. Binding curves were analyzed using BIAevaluation 3.1.
# [3] = system: ANO1; assay: Block of Ca^2+-induced ANO1 currents by helix peptides, inside-out patches; assay type: cell-based, mouse; details: 3 μM Ca^2+, E h = +80 mV
# Experimental: Fig. 4 The reference helix of the ICL3 region interacts with the Ca^2+ sensor helix in a Ca^2+-dependent way. a, b Physical interaction between the reference and Ca^2+ sensor helices was assessed with a surface plasmon resonance assay. Biotinylated Ca^2+ sensor helix peptide (692-NLEPFAGLTPEYMEM-706) was immobilized on a streptavidin-coated gold sensor chip. Resonance intensities were measured after solutions containing 0, 0.4, and 2.0 mM Ca^2+ and various concentrations of reference helix peptide (651-[…]-671) (a) or its Ala-substituted mutants (651-[…]-671) (b) were flowed through the gold chip. […] Ca^2+ (3 μM) was applied three times to inside-out patches of ANO1-transfected HEK cells. At the second Ca^2+ challenge, the peptides were also given. […] Current amplitudes were normalized to the current amplitude obtained after of the first Ca^2+ challenge. At the second Ca^2+ challenge, reference helix peptide (black circle, **p < 0.01 compared to the relative response of vehicle application, one-way ANOVA, Newman-Keuls post hoc test, n = 13), Ala-replaced reference helix peptide (black inverted triangle, n = 8), the Ca^2+ sensor helix peptide (700-TPEYMEMIIQFGF-712) (black square, **p < 0.01 compared to the relative response of vehicle application, one-way ANOVA, Newman-Keuls post hoc test, n = 7), and vehicle (white circle, n = 8) were also applied […]
# (§1) Borosilicate glass pipettes (World Precision Instruments, Sarasota, FL) with tip resistances of ~2 Mohms were used to form gigaseals on HEK cells. […] Currents were recorded with a patch-clamp amplifier (Axopatch 200B, […]) with a 1-KHz filter. […]
# (§2) The control pipette solution contained 140 mM N-methyl D-glucamine, 2 mM MgCl2, and 10 mM HEPES adjusted to pH 7.2 with HCl. […] The bath solution contained (in mM) 140 N-methyl D-glucamine, 2 MgCl2, 10 HEPES, 10 chelator (EGTA, N(2-hydroxyethyl) ethylenediamine triacetic acid (HEDTA), or nitrilotriacetic acid (NTA)), and a calculated amount of CaCl2 (adjusted with HCl to pH 7.2). […] Free Ca^2+ less than 30 μM in each solution was monitored with Fura-2 fluorometry.
# [4] = system: ANO1; assay: Inhibition of Eact-activated ANO1 currents by helix peptides, inside-out patches; assay type: cell-based, mouse; details: n = 5
# Experimental: Fig. 6 Eact, a synthetic agonist of ANO1 acts on the ICL3 region. a Example traces depicting activation by Eact of WT ANO1 (upper left), 444-EEEEE-448 (Δ5E, upper right), ΔICL3 (lower left), and 659-QMQQFIAYLQ-668 mutant (lower right). b Example traces of Eact-induced ANO1 currents, which were blocked by bath application of the reference helix peptide (Ref helix peptide, 651-[…]-671, 4 μM, lower panel) but not by the Ca^2+ sensor helix peptide (CSH peptide, 700-TPEYMEMIIQFGF-712, 10 μM, middle panel). To test the effects of peptide, 1 μM Eact was applied three times. At the second Eact challenge, each peptide was also applied. c A summary of the effects of applications of helix peptides on Eact-induced ANO1 currents. Current amplitudes were normalized to the current amplitude obtained after of the first Eact challenge. Reference helix peptide (black square, n = 5), its Ala-mutant peptide (black inverted triangle, n = 5), Ca^2+ sensor helix peptide (black triangle, n = 5), or vehicle (white circle, n = 14) was applied at the second Eact challenge. *p < 0.05 compared to the relative response of vehicle application, one-way ANOVA followed by Newman-Keuls post hoc test
# We then applied the two helix peptides to see if these peptides compete with Eact in activating ANO1.
# All mutants were generated from the wild-type construct, mouse ANO1 (pEGFP-N1-mANO1). […]
# as §1, §2
# [5] = system: ANO1; assay: Eact activation of ANO1, inside-out patches; assay type: cell-based, mouse; details: 1 μM Eact to bath of inside-out patch
# Experimental: (§3) Eact, a synthetic agonist of ANO1, was synthesized for the purpose of treating cystic fibrosis in an attempt to bypass dysfunctioning CFTR channel. Even though Eact was known to activate ANO1, the activation mechanism is not known. We therefore hypothesized that Eact also acts on the ICL3 region.
# (§4) All mutants were generated from the wild-type construct, mouse ANO1 (pEGFP-N1-mANO1). Amino acid substitution or deletion mutants were prepared using a site-directed mutagenesis kit (Muta-direct, iNtRON Biotech) or by using the overlap PCR method. Mutations in all mutants were confirmed by sequencing whole nucleotide sequences. […]
# as §1, §2
# [6] = system: Δ5E ANO1 mutant; assay: Eact activation of Δ5E ANO1 mutant, inside-out patches; assay type: cell-based, mouse; details: maximal Eact (10 μM)
# Experimental: as §3, §4, §1, §2
# [7] = system: ANO1 285-AGAYAGA-291 mutant; assay: Eact activation of ANO1 EF-hand-like region mutant; assay type: cell-based, mouse; details: data not shown
# Experimental: as §3, §4, §1, §2
# [8] = system: ΔICL3, the deletion mutant of ANO1 in the ICL3 region; assay: Eact activation of ΔICL3 ANO1 mutant; assay type: cell-based, mouse
# Experimental: as §3, §4, §1, §2
# [9] = system: ANO1 QYMQ mutant; assay: Eact activation of ANO1 Ca^2+ sensor helix mutant; assay type: cell-based, mouse; details: data not shown
# Experimental: as §3, §4, §1, §2
# [10] = system: ANO1 659-QMQQFIAYLQ-668 mutant; assay: Eact activation of ANO1 reference helix mutant; assay type: cell-based, mouse
# Experimental: as §3, §4, §1, §2
# [11] = biological target: T1, Ca2+ sensor helix peptide of ANO1 …; assay: SPR; Biacore 3000; biotinylated Ca2+ sensor helix peptide immobilised on an SA chip or custom streptavidin-coated CM5 chip, reference cell with biotin alone; HEPES-buffered saline with 0.005 % Tween 20; various concentrations of reference helix peptide injected for 120 s, dissociation 240 s, 20 uL/min; solutions with 0, 0.4 and 2.0 mM Ca2+ (Ca2+ reduced the interaction dose-dependently); details: both partners purified
molecule,measurement,setting,value
604-IFEIGVPKLKKLFRKLKD-621,circular dichroism spectrum,[1],typical circular dichroism spectrum of an α-helix with a positive band around 192 nm and negative bands around 208 and 222 nm
651-NLFEIGIPAMAAFIAYLALAA-671 [Ala-mutant reference helix peptide],interaction with Ca^2+ sensor helix peptide,"[2]; regardless of Ca^2+ concentration (0, 0.4 and 2.0 mM)",failed to show any interaction
same,effect on Ca^2+-induced ANO1 currents,"[3]; 4 μM Ala-mutant peptide, n = 8",failed to block
same,effect on Eact-activated ANO1 currents,[4]; Ala-substituted peptide with 1 μM Eact,failed to inhibit
651-NLFEIGIPKMKKFIRYLKLRR-671 [reference helix peptide],interaction with Ca^2+ sensor helix peptide,"[2]; absence of Ca^2+, Biacore 3000, HEPES-buffered saline, 0.005 % Tween 20, 20 μL/min, 120 s injection, 240 s dissociation",interacted strongly with the Ca^2+ sensor helix
same,effect on Ca^2+-induced ANO1 currents,"[3]; 4 μM peptide, p < 0.01 vs vehicle, one-way ANOVA, Newman-Keuls, n = 13",markedly blocked
same,effect on Eact-activated ANO1 currents,"[4]; 4 μM peptide with 1 μM Eact, p < 0.05 vs vehicle, one-way ANOVA, Newman-Keuls",significantly inhibited
652-LFEIGIPKMKKFIRYLKL-669,circular dichroism spectrum,[1],typical circular dichroism spectrum of an α-helix with a positive band around 192 nm and negative bands around 208 and 222 nm
"700-TPEYMEMIIQFGF-712 [Ca^2+ sensor helix peptide, Ca^2+ sensor helix peptide (700-…-712)]",effect on Ca^2+-induced ANO1 currents,"[3]; 10 μM peptide, p < 0.01 vs vehicle, one-way ANOVA, Newman-Keuls, n = 7",markedly blocked
same,effect on Eact-activated ANO1 currents,[4]; 10 μM peptide with 1 μM Eact,failed to inhibit
COCCN(C(=O)c1cc(OC)c(OC)c(OC)c1)c1nc(-c2ccccc2)cs1 [Eact],activation of ANO1 by Eact,[5],activated ANO1
same,activation by Eact,[6],activated the Δ5E ANO1 mutant
same,activation by Eact,[7],activated 285-AGAYAGA-291 mutant
same,activation by Eact,[8],failed to activate
same,activation by Eact,[9],failed to activate
same,activation by Eact,[10],failed to activate
NLFEIGIPKMKKFIRYLKLRR (source: synthetic peptide) [reference helix peptide of ANO1 (651-NLFEIGIPKMKKFIRYLKLRR-671)],binding result,[11],binds
